Reference: PMC4996684 (Bioorganic & medicinal chemistry letters, 2016)
Read-outs that look alike come from different tables or passages of the source.

Biological target: T1, human M5 mAChR (Homo sapiens, UniProt P08912)
T1 sequence (P08912 1-532): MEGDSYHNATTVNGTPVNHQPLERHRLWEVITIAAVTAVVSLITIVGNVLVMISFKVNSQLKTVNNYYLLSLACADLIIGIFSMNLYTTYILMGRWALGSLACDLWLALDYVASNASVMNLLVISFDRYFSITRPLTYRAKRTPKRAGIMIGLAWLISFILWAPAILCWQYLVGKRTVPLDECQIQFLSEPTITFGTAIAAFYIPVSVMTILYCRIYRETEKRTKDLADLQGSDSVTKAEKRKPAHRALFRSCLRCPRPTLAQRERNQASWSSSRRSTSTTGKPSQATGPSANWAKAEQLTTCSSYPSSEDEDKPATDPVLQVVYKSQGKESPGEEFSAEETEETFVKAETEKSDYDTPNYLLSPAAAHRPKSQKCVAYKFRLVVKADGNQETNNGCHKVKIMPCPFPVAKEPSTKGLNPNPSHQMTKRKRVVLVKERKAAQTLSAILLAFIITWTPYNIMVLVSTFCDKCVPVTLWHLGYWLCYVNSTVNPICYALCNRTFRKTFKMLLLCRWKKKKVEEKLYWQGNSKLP
Assay: hM5 functional inhibition assay
Assay type: cell-based
Conditions: for hM5 Percent inhibition (Table 3): single point at 10 μM, EC80 of ACh, average of three determinations

hM5 Percent inhibition (Table 3)	inhibition at 10 µM (read-out: hM5 Percent inhibition (Table 2)) [%]	inhibition at 10 µM (read-out: hM5 Percent inhibition (Table 3)) [%]	inhibition at 10 µM (read-out: maximum M5 inhibition, single point M5 inhibition assay) [%]	activity in the 10 μM single point assay (resynthesized 4, 10 μM) [%]	Compound
Inactive					Cc1nn(C)cc1S(=O)(=O)N1CCC2(CC1)OCCS2 [Compound 9b]
Inactive					Cn1cnc(S(=O)(=O)N2CCC3(CC2)OCCS3)c1 [Compound 9h]
	84	88	50	88	Cc1nn(C)c(C)c1S(=O)(=O)N1CCC2(CC1)OCCS2 [Compound 4, 8-((1,3,5-trimethyl-1H-pyrazol-4-yl)sulfonyl)-1-oxa-4-thia-8-azaspiro[4,5]decane]
